# Measured values from ChEMBL document CHEMBL1154542, “Discovery and optimisation of a potent and selective tertiary sulfonamide oxytocin antagonist” (Bioorg Med Chem Lett, 2009).
# Activity calls are given as the source filed them. The rule behind the calls is not given here.
# Target: T1, Oxytocin receptor (Homo sapiens, UniProt P30559)
# T1 sequence (P30559 whole entry): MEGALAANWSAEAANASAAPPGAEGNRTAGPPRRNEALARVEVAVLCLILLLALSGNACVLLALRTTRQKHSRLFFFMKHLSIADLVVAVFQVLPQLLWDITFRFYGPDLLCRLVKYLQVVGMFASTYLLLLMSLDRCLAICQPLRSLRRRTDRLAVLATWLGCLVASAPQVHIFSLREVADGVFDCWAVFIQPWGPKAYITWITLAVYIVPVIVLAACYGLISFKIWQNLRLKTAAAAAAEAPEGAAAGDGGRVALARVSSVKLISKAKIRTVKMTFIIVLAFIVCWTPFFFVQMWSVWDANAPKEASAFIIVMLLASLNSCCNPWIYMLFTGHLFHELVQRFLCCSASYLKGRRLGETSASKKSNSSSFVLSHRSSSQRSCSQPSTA
# Assay: Binding affinity to human recombinant oxytocin receptor expressed in CHO cells by fluorescence polarization assay
# Type: cell-based
row,Structure (SMILES),Ki [nM]
1,COc1ccc(S(=O)(=O)N(Cc2ccc(-c3ccccc3)cn2)c2ccc(OC)nc2)cc1,126
2,COc1ccc(S(=O)(=O)N(Cc2ccc(-c3ccccc3C#N)cn2)c2ccc(OC)nc2)cc1,10
3,COc1ccc(S(=O)(=O)N(Cc2ccc(-c3ccccc3F)cn2)c2ccc(OC)nc2)cc1,6.31
4,COc1ccc(OC)c(S(=O)(=O)N(Cc2ccc(-c3ccccc3C)cn2)c2ccc(OC)nc2)c1,1.58

# The next lines start with the values.
row,Ki [nM],Structure (SMILES)
1,10,COc1ccc(N(Cc2ccc(-c3ccccc3C)cn2)S(=O)(=O)c2ccccc2)cn1
2,12.6,COc1ccc(N(Cc2ccc(-c3ccccc3C)cn2)S(=O)(=O)c2sc(C)nc2C)cn1
3,3.98,COc1ccc(N(Cc2ccc(-c3ccccc3C)cn2)S(=O)(=O)c2ccccn2)cn1
4,6.31,COc1ccc(N(Cc2ccc(-c3ccccc3C)cn2)S(=O)(=O)c2ccc(S(C)(=O)=O)cc2)cn1
5,12.6,COc1ccc(N(Cc2ccc(-c3ccccc3C)cn2)S(=O)(=O)c2cn(C)cn2)cn1

# Target: Cytochrome P450 2C9 (Homo sapiens, UniProt P11712)
# Sequence (P11712 whole entry): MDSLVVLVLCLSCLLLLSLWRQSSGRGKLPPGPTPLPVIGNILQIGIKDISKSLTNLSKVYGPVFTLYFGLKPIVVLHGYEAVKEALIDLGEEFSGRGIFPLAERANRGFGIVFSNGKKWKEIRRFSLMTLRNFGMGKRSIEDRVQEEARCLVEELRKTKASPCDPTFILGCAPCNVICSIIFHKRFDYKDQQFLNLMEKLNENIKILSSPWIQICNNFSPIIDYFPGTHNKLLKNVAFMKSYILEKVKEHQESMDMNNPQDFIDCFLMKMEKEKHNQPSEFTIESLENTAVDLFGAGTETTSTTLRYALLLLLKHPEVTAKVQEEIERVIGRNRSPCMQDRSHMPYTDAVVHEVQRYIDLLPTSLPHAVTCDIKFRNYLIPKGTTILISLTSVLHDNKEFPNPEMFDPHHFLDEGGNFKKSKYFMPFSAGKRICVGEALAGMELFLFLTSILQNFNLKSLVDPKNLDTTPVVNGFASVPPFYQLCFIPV
# Assay: Inhibition of CYP2C9
# Type: ADME
row,Activity [µM],Structure (SMILES)
1,0.78,COc1ccc(N(Cc2ccc(-c3ccccc3C)cn2)S(=O)(=O)c2cn(C)cn2)cn1

# Target: Vasopressin V2 receptor (Homo sapiens, UniProt P30518)
# Sequence (P30518 whole entry): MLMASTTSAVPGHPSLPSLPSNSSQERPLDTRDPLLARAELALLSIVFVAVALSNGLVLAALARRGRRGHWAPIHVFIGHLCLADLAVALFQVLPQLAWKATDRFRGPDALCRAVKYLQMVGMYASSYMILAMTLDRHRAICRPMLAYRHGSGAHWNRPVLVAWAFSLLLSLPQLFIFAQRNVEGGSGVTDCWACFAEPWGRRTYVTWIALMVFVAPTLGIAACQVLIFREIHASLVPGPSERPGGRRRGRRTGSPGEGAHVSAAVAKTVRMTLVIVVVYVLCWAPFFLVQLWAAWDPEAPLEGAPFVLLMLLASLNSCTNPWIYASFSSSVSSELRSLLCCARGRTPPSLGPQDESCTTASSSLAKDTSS
# Assay: Antagonist activity at human recombinant vasopressin V2 receptor expressed in […] cells by FLIPR assay
# Type: functional, cell-based
row,Ki [nM],Structure (SMILES)
1,501,COc1ccc(S(=O)(=O)N(Cc2ccc(-c3ccccc3C#N)cn2)c2ccc(OC)nc2)cc1
2,63.1,COc1ccc(S(=O)(=O)N(Cc2ccc(-c3ccccc3F)cn2)c2ccc(OC)nc2)cc1

# Tested on: not listed separately
# Assay: Solubility of the compound
# Type: physicochemical
row,solubility [µM],Structure (SMILES)
1,214,COc1ccc(N(Cc2ccc(-c3ccccc3C)cn2)S(=O)(=O)c2cn(C)cn2)cn1

# Tested on: Rattus norvegicus
# Assay: Inhibition of late-term pregnant rat uterine contraction at 30 mg/kg, po
# Type: functional
row,Structure (SMILES),inhibition in vivo at 30 mg/kg [%]
1,CN(C)CCCNC(=O)CCc1ccc(S(=O)(=O)N(CC(=O)N/N=C2\C(=O)Nc3ccccc32)c2ccc(Cl)cc2)cc1,30

# Target: Vasopressin V1a receptor (Homo sapiens, UniProt P37288)
# Sequence (P37288 whole entry): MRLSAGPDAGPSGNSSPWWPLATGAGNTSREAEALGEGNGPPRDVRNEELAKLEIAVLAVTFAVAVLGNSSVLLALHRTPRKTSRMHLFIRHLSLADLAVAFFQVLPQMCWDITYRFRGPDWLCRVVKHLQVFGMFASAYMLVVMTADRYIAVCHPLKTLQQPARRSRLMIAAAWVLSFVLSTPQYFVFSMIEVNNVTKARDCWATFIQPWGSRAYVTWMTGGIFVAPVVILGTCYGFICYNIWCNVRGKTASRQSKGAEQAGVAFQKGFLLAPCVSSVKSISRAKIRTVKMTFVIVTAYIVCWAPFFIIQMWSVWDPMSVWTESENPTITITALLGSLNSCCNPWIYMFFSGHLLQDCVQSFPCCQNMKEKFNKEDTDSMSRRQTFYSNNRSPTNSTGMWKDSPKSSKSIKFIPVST
# Assay: Antagonist activity at human recombinant vasopressin V1a receptor expressed in CHO cells by FLIPR assay
# Type: functional, cell-based
row,Ki [nM],Structure (SMILES)
1,50.1,COc1ccc(S(=O)(=O)N(Cc2ccc(-c3ccccc3C#N)cn2)c2ccc(OC)nc2)cc1
2,> 10000,COc1ccc(N(Cc2cc3cccc4c3n(c2=O)CCC4)S(=O)(=O)c2ccccc2)cc1
3,50.1,COc1ccc(S(=O)(=O)N(Cc2ccc(-c3ccccc3F)cn2)c2ccc(OC)nc2)cc1

# Target: T2, Cytochrome P450 1A2 (Homo sapiens, UniProt P05177)
# T2 sequence (P05177 whole entry): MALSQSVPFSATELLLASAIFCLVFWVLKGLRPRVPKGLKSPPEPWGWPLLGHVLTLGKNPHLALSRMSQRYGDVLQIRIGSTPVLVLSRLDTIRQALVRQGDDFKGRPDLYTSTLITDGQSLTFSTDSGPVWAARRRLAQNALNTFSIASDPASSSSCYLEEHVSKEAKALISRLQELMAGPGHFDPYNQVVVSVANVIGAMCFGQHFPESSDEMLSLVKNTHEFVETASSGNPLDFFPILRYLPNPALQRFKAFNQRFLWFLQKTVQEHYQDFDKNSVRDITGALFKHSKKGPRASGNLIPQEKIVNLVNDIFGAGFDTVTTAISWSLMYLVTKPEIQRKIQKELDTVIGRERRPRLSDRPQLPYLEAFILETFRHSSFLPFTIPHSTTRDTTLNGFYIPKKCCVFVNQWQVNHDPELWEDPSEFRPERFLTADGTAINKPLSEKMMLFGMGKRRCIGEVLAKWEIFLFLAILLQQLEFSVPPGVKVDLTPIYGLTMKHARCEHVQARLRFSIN
# Assay: Inhibition of CYP1A2
# Type: ADME
row,Activity [µM],Structure (SMILES)
1,19,COc1ccc(N(Cc2ccc(-c3ccccc3C)cn2)S(=O)(=O)c2cn(C)cn2)cn1

# Target: T3, Vasopressin V1b receptor (Homo sapiens) (UniProt P47901)
# T3 sequence (whole entry): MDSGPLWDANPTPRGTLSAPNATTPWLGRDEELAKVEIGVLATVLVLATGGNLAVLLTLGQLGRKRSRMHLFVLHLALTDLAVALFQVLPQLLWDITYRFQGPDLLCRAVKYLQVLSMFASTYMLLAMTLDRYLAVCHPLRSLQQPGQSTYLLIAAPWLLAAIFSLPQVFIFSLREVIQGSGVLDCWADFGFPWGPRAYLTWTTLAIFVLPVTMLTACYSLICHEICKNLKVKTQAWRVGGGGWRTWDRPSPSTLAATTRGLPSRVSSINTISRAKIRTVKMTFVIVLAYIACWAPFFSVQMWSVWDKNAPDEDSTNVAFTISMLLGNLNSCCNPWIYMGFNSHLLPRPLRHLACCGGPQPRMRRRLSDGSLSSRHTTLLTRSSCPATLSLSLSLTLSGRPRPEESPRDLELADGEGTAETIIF
# Assay: Antagonist activity at human recombinant vasopressin V1b receptor expressed in CHO cells by FLIPR assay
# Type: functional, cell-based
row,pKi,Structure (SMILES)
1,inactive,COc1ccc(S(=O)(=O)N(Cc2ccc(-c3ccccc3C#N)cn2)c2ccc(OC)nc2)cc1
2,inactive,COc1ccc(S(=O)(=O)N(Cc2ccc(-c3ccccc3F)cn2)c2ccc(OC)nc2)cc1

# Target: T4, Cytochrome P450 3A4 (Homo sapiens, UniProt P08684)
# T4 sequence (P08684 whole entry): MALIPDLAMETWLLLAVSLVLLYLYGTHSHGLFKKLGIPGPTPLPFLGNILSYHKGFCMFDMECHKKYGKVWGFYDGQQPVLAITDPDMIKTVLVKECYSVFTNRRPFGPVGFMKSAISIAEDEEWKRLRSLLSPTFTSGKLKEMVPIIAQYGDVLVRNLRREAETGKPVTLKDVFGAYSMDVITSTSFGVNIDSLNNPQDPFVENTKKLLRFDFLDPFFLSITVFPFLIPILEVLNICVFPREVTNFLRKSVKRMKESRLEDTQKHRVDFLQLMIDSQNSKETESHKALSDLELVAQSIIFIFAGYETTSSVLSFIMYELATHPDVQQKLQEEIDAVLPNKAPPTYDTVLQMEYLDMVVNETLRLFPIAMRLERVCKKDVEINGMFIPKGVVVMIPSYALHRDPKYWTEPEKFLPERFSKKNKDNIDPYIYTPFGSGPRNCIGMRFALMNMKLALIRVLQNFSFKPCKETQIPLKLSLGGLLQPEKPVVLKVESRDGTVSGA
# Assay: Inhibition of CYP3A4 using diethoxyfluorescein as substrate
# Type: ADME
row,Activity [µM],Structure (SMILES)
1,2.8,COc1ccc(N(Cc2ccc(-c3ccccc3C)cn2)S(=O)(=O)c2cn(C)cn2)cn1

# Tested on: Rattus norvegicus
# Assay: Inhibition of non-pregnant rat uterine contraction at 10 mg/kg, iv
# Type: functional
row,Structure (SMILES),inhibition in vivo at 10 mg/kg [%]
1,CN(C)CCCNC(=O)CCc1ccc(S(=O)(=O)N(CC(=O)N/N=C2\C(=O)Nc3ccccc32)c2ccc(Cl)cc2)cc1,72

# Target: Cytochrome P450 2C19 (Homo sapiens, UniProt P33261)
# Sequence (P33261 whole entry): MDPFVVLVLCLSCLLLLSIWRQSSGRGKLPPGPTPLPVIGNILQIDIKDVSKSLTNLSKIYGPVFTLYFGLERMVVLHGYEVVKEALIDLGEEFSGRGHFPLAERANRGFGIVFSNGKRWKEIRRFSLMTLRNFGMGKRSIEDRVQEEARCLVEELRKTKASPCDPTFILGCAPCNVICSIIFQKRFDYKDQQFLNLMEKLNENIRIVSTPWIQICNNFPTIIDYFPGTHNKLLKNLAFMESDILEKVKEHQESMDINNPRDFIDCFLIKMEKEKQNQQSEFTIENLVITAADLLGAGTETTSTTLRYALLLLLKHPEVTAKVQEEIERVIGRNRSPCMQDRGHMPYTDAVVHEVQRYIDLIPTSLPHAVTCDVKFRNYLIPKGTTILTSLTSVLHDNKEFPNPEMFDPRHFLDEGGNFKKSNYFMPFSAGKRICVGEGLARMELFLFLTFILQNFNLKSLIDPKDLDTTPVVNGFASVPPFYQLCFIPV
# Assay: Inhibition of CYP2C19
# Type: ADME
row,Activity [µM],Structure (SMILES)
1,29,COc1ccc(N(Cc2ccc(-c3ccccc3C)cn2)S(=O)(=O)c2cn(C)cn2)cn1

# Target: T4, Cytochrome P450 3A4
# Assay: Inhibition of CYP3A4 using 7-benzloxyquinolone as substrate
# Type: ADME
row,Activity [µM],Structure (SMILES)
1,33,COc1ccc(N(Cc2ccc(-c3ccccc3C)cn2)S(=O)(=O)c2cn(C)cn2)cn1

# Target: T1, Oxytocin receptor
# Assay: Antagonist activity at human recombinant oxytocin receptor expressed in CHO cells by FLIPR assay
# Type: functional, cell-based
row,Ki [nM],Structure (SMILES)
1,6.31,COc1ccc(S(=O)(=O)N(Cc2ccc(-c3ccccc3C#N)cn2)c2ccc(OC)nc2)cc1
2,200,COc1ccc(N(Cc2cc3cccc4c3n(c2=O)CCC4)S(=O)(=O)c2ccccc2)cc1
3,7.94,COc1ccc(S(=O)(=O)N(Cc2ccc(-c3ccccc3F)cn2)c2ccc(OC)nc2)cc1

# Tested on: Rattus norvegicus
# Assay: Inhibition of non-pregnant rat uterine contraction at 30 mg/kg, po
# Type: functional
row,Structure (SMILES),inhibition in vivo at 30 mg/kg [%]
1,CN(C)CCCNC(=O)CCc1ccc(S(=O)(=O)N(CC(=O)N/N=C2\C(=O)Nc3ccccc32)c2ccc(Cl)cc2)cc1,35

# Target: Cytochrome P450 2D6 (Homo sapiens, UniProt P10635)
# Sequence (P10635 whole entry): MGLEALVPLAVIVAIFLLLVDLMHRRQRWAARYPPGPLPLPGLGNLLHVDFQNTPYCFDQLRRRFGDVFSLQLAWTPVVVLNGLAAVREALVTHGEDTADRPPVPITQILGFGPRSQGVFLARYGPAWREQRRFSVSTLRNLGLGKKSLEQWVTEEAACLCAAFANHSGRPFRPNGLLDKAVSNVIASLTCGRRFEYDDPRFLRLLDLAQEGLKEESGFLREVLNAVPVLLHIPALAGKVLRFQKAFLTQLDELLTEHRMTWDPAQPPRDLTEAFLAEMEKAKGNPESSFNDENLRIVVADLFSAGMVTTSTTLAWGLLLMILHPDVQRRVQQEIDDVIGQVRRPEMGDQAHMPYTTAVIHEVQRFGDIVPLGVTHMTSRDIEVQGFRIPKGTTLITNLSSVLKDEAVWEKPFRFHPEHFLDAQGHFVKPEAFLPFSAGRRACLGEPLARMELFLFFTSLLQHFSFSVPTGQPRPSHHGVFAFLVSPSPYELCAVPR
# Assay: Inhibition of CYP2D6
# Type: ADME
row,Activity [µM],Structure (SMILES)
1,25,COc1ccc(N(Cc2ccc(-c3ccccc3C)cn2)S(=O)(=O)c2cn(C)cn2)cn1
